This is an account of results in patent US10023544B2, “Heterocyclic compound” (Takeda Pharmaceutical Company Limited, priority 2014, dated 2018).

Experiment [1] concerns DIO mouse. Put plainly: Test on antiobesity action using DIO mouse. The class given is in vivo. The note with it: mean ± SD; for Body weight (g) At start of administration: baseline. The protocol: A 0.5% methylcellulose suspension (test compound administered group, 5 or 6 mice per group) containing each test compound (20 or 60 mg/kg) or a 0.5% methylcellulose suspension (test compound non-administered group (vehicle), 6 mice per group) was orally administered to each diet-induced obesity (DIO) mouse (D12079B diet, male, 46 weeks old) once a day for 4 weeks. The means of body weights and standard deviations at the start of administration and after 4-week continuous administration are shown below.

In experiment [2] the target is T1, Human recombinant enteropeptidase (Homo sapiens, UniProt P98073).
T1 construct: purchased ITSI-Biosciences, LLC #REN-260
T1 sequence (P98073 whole entry): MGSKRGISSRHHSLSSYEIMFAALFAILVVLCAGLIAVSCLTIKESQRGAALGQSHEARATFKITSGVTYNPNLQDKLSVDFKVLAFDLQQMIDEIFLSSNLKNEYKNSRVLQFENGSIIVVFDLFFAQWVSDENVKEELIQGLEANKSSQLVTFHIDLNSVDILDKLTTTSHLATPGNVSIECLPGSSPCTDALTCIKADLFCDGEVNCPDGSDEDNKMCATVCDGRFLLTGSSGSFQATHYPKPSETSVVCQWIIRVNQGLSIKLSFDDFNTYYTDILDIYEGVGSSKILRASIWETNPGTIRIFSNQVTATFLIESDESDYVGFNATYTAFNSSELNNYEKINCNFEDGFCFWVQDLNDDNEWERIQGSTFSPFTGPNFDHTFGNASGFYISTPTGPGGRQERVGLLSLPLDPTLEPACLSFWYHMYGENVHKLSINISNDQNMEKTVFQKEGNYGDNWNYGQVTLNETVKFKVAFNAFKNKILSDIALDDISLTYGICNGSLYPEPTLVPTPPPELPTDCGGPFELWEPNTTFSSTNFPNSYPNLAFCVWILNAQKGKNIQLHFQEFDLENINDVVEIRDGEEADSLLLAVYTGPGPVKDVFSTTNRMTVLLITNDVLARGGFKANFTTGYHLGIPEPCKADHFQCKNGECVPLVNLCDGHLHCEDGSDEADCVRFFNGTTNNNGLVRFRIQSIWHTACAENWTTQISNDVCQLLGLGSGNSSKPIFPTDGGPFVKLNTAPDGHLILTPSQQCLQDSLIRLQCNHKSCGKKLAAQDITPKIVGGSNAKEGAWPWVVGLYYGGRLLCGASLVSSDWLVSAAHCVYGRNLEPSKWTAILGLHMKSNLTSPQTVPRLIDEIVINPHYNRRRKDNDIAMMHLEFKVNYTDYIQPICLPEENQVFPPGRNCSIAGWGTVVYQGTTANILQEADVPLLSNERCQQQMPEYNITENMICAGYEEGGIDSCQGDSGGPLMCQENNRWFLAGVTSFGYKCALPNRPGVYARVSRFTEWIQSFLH
Put plainly: Human enteropeptidase inhibitory activity. In kind it is biochemical. The following applies: 3.3 uM test compound; fluorescence intensity 2 hours after start of reaction; read-out: Inhibition rate at 3.3 uM (%). As for the experimental part:
Human recombinant enteropeptidase (#REN-260, ITSI-Biosciences, LLC) was diluted with an assay buffer (50 mM Tricine (pH 8.0), 0.01 (w/v) % Tween 20, 10 mM CaCl2) to prepare a 24 mU/mL enzyme solution. Subsequently, 5FAM-Abu-Gly-Asp-Asp-Asp-Lys-Ile-Val-Gly-Gly-Lys(CPQ2)-Lys-Lys-NH2 (purity: 97.2%, CPC Scientific, Inc.) produced according to a synthesis method known per se was diluted with an assay buffer to prepare a 2.1 uM (“u” represents “micro”) substrate solution. Each test compound was dissolved in DMSO to prepare a 1 mM solution, which was then diluted 100-fold with an assay buffer to prepare a compound solution. The compound solution (5 uL/well) and the substrate solution (5 uL/well) were added to a 384-well black plate (#784076, Greiner Bio-One) and mixed. Then, the enzyme solution (5 uL/well) was added to the plate and mixed to start reaction. The fluorescence intensity was measured at an excitation wavelength of 485 nm and a fluorescence wavelength of 535 nm using a fluorescence plate reader EnVision (PerkinElmer Inc.). Also, the same reaction as above was performed except that the test compound was not added (test compound non-supplemented group). In addition, the same reaction as above was performed except that neither the test compound nor the enzyme was added (control group). The inhibition rate was calculated from the fluorescence intensity 2 hours after the start of the reaction according to the following equation: Inhibition rate (%)=(1−(Fluorescence intensity of the test compound supplemented group−Fluorescence intensity of the control group)/(Fluorescence intensity of the test compound non-supplemented group−Fluorescence intensity of the control group))×100

Experiment [3] relates to HFD-fed mouse. Put plainly: Test on elevation of protein concentration in feces using HFD-fed mouse. The class given is in vivo. The following applies: 10 mg/kg oral, whole feces at day 1 of administration, mean ± SD. The protocol:
A 0.5% methylcellulose suspension (test compound administered group, 5 mice per group) containing each test compound (10 mg/kg) or a 0.5% methylcellulose suspension (test compound non-administered group (vehicle), 5 mice per group) was orally administered to each high fat diet-fed (HFD-fed) mouse (D12079B diet, male, 15 weeks old), and the whole feces were recovered at day 1 of administration. The dry feces were dissolved in a 0.5 N aqueous sodium hydroxide solution. After centrifugation at 12,000 rpm, a protein concentration was quantified (Lowry method) using the supernatant to calculate a protein concentration (mg/g feces) in 1 g of feces. The mean and standard deviation of each group are shown below.

The term inhibition denotes the change of the read-out against control, counted positive when it falls. For `N=C(N)Nc1ccc(C(=O)Oc2cccc(C3=NO[C@](CC(=O)O)(C(=O)O)C3)c2)cc1` [Example 1, (5R)-3-(3-((4-Carbamimidamidobenzoyl)oxy)phenyl)-5-(carboxymethyl)-4,5-dihydro-1,2-oxazole-5-carboxylic acid], the “Body weight (g) After 4-week continuous administration” value in experiment [1] (20 mg/kg oral once a day for 4 weeks) turned out to be 43.1 ± 3.5 g; in experiment [1] (60 mg/kg oral once a day for 4 weeks), 40.2 ± 2.1 g. Further, the entries for the “Body weight (g) At start of administration” value in experiment [1] (20 mg/kg oral once a day) and in experiment [1] (60 mg/kg oral once a day) were 48.9 ± 2.0 g and 48.9 ± 2.5 g, respectively. The inhibition at 3.3 µM in experiment [2] was found to be 101%. In addition, the “Protein concentration in feces” value in experiment [3] is recorded as 151.5 ± 22.8 mg/g.

Consider `N=C(N)Nc1ccc(C(=O)Oc2cccc(C3=NO[C@@](CC(=O)O)(C(=O)O)C3)c2)cc1` [Example 5, (5S)-3-(3-((4-Carbamimidamidobenzoyl)oxy)phenyl)-5-(carboxymethyl)-4,5-dihydro-1,2-oxazole-5-carboxylic acid], for which, in experiment [2], the inhibition at 3.3 µM turned out to be 101%. Also, the “Protein concentration in feces” value in experiment [3] is recorded as 144.5 ± 26.6 mg/g.

On to `CS(=O)(=O)CCNC(=O)CCc1ccc(OC(=O)c2ccc(NC(=N)N)cc2)cc1C1=NOC(CC(=O)O)(CC(=O)O)C1` [Example 27, 2,2′-(3-(5-((4-carbamimidamidobenzoyl)oxy)-2-(3-((2-(methylsulfonyl)ethyl)amino)-3-oxopropyl)phenyl)-4,5-dihydro-1,2-oxazole-5,5-diyl)diacetic acid], for which the inhibition at 3.3 µM in experiment [2] came to 100%.

On to `N=C(N)Nc1ccc(C(=O)Oc2ccc(CCC(=O)N[C@@H](CC(N)=O)C(=O)O)c(C3=NOC(CC(=O)O)(CC(=O)O)C3)c2)cc1` [Example 28, N^2-(3-(2-(5,5-bis(carboxymethyl)-4,5-dihydro-1,2-oxazol-3-yl)-4-((4-carbamimidamidobenzoyl)oxy)phenyl)propanoyl)-L-asparagine], for which the inhibition at 3.3 µM in experiment [2] came to 100%.

For the molecule `N=C(N)Nc1ccc(C(=O)Oc2ccc(CCC(=O)N[C@@H](CCC(N)=O)C(=O)O)c(C3=NOC(CC(=O)O)(CC(=O)O)C3)c2)cc1` [Example 29, N^2-(3-(2-(5,5-bis(carboxymethyl)-4,5-dihydro-1,2-oxazol-3-yl)-4-((4-carbamimidamidobenzoyl)oxy)phenyl)propanoyl)-L-glutamine], the inhibition at 3.3 µM in experiment [2] was 100%.

As to `N=C(N)Nc1ccc(C(=O)Oc2ccc(CCC(=O)NCC(=O)O)c(C3=NOC(CC(=O)O)(CC(=O)O)C3)c2)cc1` [Example 30, N-(3-(2-(5,5-bis(carboxymethyl)-4,5-dihydro-1,2-oxazol-3-yl)-4-((4-carbamimidamidobenzoyl)oxy)phenyl)propanoyl)glycine], in experiment [2], the inhibition at 3.3 µM worked out at 100%.

For the molecule `CN(CC(=O)O)C(=O)CCc1ccc(OC(=O)c2ccc(NC(=N)N)cc2)cc1C1=NOC(CC(=O)O)(CC(=O)O)C1` [Example 31, N-(3-(2-(5,5-bis(carboxymethyl)-4,5-dihydro-1,2-oxazol-3-yl)-4-((4-carbamimidamidobenzoyl)oxy)phenyl)propanoyl)-N-methylglycine], the inhibition at 3.3 µM in experiment [2] worked out at 100%.

Regarding `N=C(N)Nc1ccc(C(=O)Oc2ccc(CCC(=O)NCCC(=O)O)c(C3=NOC(CC(=O)O)(CC(=O)O)C3)c2)cc1` [Example 32, N-(3-(2-(5,5-bis(carboxymethyl)-4,5-dihydro-1,2-oxazol-3-yl)-4-((4-carbamimidamidobenzoyl)oxy)phenyl)propanoyl)-beta-alanine], the inhibition at 3.3 µM in experiment [2] was found to be 100%.

With `N=C(N)Nc1ccc(C(=O)Oc2ccc(CCC(=O)N3CCC(C(=O)O)CC3)c(C3=NOC(CC(=O)O)(CC(=O)O)C3)c2)cc1` [Example 33, 1-(3-(2-(5,5-Bis(carboxymethyl)-4,5-dihydro-1,2-oxazol-3-yl)-4-((4-carbamimidamidobenzoyl)oxy)phenyl)propanoyl)piperidine-4-carboxylic acid], the inhibition at 3.3 µM in experiment [2] was 100%.

Regarding `N=C(N)Nc1ccc(C(=O)Oc2ccc(CCC(=O)NCCS(=O)(=O)O)c(C3=NOC(CC(=O)O)(CC(=O)O)C3)c2)cc1` [Example 34, 2,2′-(3-(5-((4-Carbamimidamidobenzoyl)oxy)-2-(3-oxo-3-((2-sulfoethyl)amino)propyl)phenyl)-4,5-dihydro-1,2-oxazole-5,5-diyl)diacetic acid], the inhibition at 3.3 µM in experiment [2] came out at 101%.
